In the NIST ThermoML archive (doi:10.1021/acs.jced.8b00425):
Numbers after ± are expanded uncertainties.

Experiments:
[1] = Molar enthalpy of transition or fusion; settings: Crystal; DSC
[2] = Crystal; DSC

Molar enthalpy of transition or fusion [1]: 6.88 ± 0.177 kcal/mol | Triple point temperature [2]: 555.66 ± 0.88 K
SMILES: O=c1[nH]cc(F)c(=O)[nH]1 [5-fluoro-2,4(1H,3H)-pyrimidinedione]
